PubChem BioAssay AID1259407 (Chemical Carcinogenesis Research Information System (CCRIS), 2018)
Calls of active or inactive are those of the source. How the calls were made is not given here.

System: CCRIS mutagenicity, Ames/micronucleus/aberration tests
Experiment: CCRIS mutagenicity studies
[1] = Test System: AMES SALMONELLA TYPHIMURIUM, Strain/Indicator: TA98, Metabolic Activation: NONE, Method: STANDARD PLATE
[2] = Test System: AMES SALMONELLA TYPHIMURIUM, Strain/Indicator: TA100, Metabolic Activation: NONE, Method: PREINCUBATION
[3] = Test System: AMES SALMONELLA TYPHIMURIUM, Strain/Indicator: TA100, Metabolic Activation: NONE, Method: STANDARD PLATE
[4] = Test System: AMES SALMONELLA TYPHIMURIUM, Strain/Indicator: TA100, Metabolic Activation: RAT, LIVER, S-9, AROCLOR 1254, Method: STANDARD PLATE
[5] = Test System: AMES SALMONELLA TYPHIMURIUM, Strain/Indicator: TA1535, Metabolic Activation: NONE, Method: STANDARD PLATE
[6] = Test System: AMES SALMONELLA TYPHIMURIUM, Strain/Indicator: TA1535, Metabolic Activation: RAT, LIVER, S-9, AROCLOR 1254, Method: STANDARD PLATE
[7] = Test System: AMES SALMONELLA TYPHIMURIUM, Strain/Indicator: TA1537, Metabolic Activation: NONE, Method: PREINCUBATION
[8] = Test System: AMES SALMONELLA TYPHIMURIUM, Strain/Indicator: TA1537, Metabolic Activation: NONE, Method: STANDARD PLATE

For `c1ccc(-c2ccccc2)cc1`, the mutagenic call (Test System: AMES SALMONELLA TYPHIMURIUM, Strain/Indicator: TA97, Metabolic Activation: NONE, Method: STANDARD PLATE) was “inactive; negative”, the mutagenic call (Test System: AMES SALMONELLA TYPHIMURIUM, Strain/Indicator: TA97, Metabolic Activation: RAT, LIVER, S-9, AROCLOR 1254, Method: STANDARD PLATE) was “inactive; negative” and the mutagenic call (Test System: AMES SALMONELLA TYPHIMURIUM, Strain/Indicator: TA98, Metabolic Activation: NONE, Method: PREINCUBATION) was “inactive; negative”. The mutagenic call [1] was “inactive; negative”, the mutagenic call (Test System: AMES SALMONELLA TYPHIMURIUM, Strain/Indicator: TA98, Metabolic Activation: RAT LIVER S-9, PHENOBARBITAL AND BETA-NAPHTHOFLAVONE, Method: PREINCUBATION) was “inactive; negative” and the mutagenic call (Test System: AMES SALMONELLA TYPHIMURIUM, Strain/Indicator: TA98, Metabolic Activation: RAT, LIVER, S-9, AROCLOR 1254, Method: STANDARD PLATE) was “inactive; negative”. For the same molecule, the mutagenic call [2] was “inactive; negative”, the mutagenic call [3] was “inactive; negative” and the mutagenic call (Test System: AMES SALMONELLA TYPHIMURIUM, Strain/Indicator: TA100, Metabolic Activation: RAT LIVER S-9, PHENOBARBITAL AND BETA-NAPHTHOFLAVONE, Method: PREINCUBATION) was “inactive; negative”. For the same molecule, the mutagenic call [4] was “inactive; negative”, the mutagenic call (Test System: AMES SALMONELLA TYPHIMURIUM, Strain/Indicator: TA1535, Metabolic Activation: NONE, Method: PREINCUBATION) was “inactive; negative” and the mutagenic call [5] was “inactive; negative”. The mutagenic call (Test System: AMES SALMONELLA TYPHIMURIUM, Strain/Indicator: TA1535, Metabolic Activation: RAT LIVER S-9, PHENOBARBITAL AND BETA-NAPHTHOFLAVONE, Method: PREINCUBATION) was “inactive; negative”, the mutagenic call [6] was “inactive; negative” and the mutagenic call [7] was “inactive; negative”. The mutagenic call [8] was “inactive; negative”, the mutagenic call (Test System: AMES SALMONELLA TYPHIMURIUM, Strain/Indicator: TA1537, Metabolic Activation: RAT LIVER S-9, PHENOBARBITAL AND BETA-NAPHTHOFLAVONE, Method: PREINCUBATION) was “inactive; negative” and the mutagenic call (Test System: AMES SALMONELLA TYPHIMURIUM, Strain/Indicator: TA1537, Metabolic Activation: RAT, LIVER, S-9, AROCLOR 1254, Method: STANDARD PLATE) was “inactive; negative”. For the same molecule, the mutagenic call (Test System: E. COLI, Strain/Indicator: WP2, Metabolic Activation: NONE, Method: STANDARD PLATE) was “inactive; negative”, the mutagenic call (Test System: E. COLI, Strain/Indicator: WP2, Metabolic Activation: RAT, LIVER, S-9, AROCLOR 1254, Method: STANDARD PLATE) was “inactive; negative” and the mutagenic call (Test System: E.COLI, Strain/Indicator: WP2UVRA, Metabolic Activation: NONE, Method: PREINCUBATION) was “inactive; negative”. For the same molecule, the mutagenic call (Test System: E.COLI, Strain/Indicator: WP2UVRA, Metabolic Activation: RAT LIVER S-9, PHENOBARBITAL AND BETA-NAPHTHOFLAVONE, Method: PREINCUBATION) was “inactive; negative”, the mutagenic call (Test System: MOUSE LYMPHOMA, Strain/Indicator: L5178Y (TK+/TK-), Metabolic Activation: NONE, Method: SUSPENSION/PLATE) was “active; positive” and the mutagenic call (Test System: MOUSE LYMPHOMA, Strain/Indicator: L5178Y (TK+/TK-), Metabolic Activation: RAT, LIVER, S-9, AROCLOR 1254, Method: SUSPENSION/PLATE) was “active; positive”.

In the case of `O=C1c2cccc(O)c2C(=O)c2c(O)cc(CO)cc21`, the mutagenic call (Test System: AMES SALMONELLA TYPHIMURIUM, Strain/Indicator: TA97A, Metabolic Activation: NONE, Method: STANDARD PLATE) is reported as “active; positive”, the mutagenic call (Test System: AMES SALMONELLA TYPHIMURIUM, Strain/Indicator: TA97A, Metabolic Activation: RAT, LIVER, S-9, AROCLOR 1254, Method: STANDARD PLATE) is reported as “active; positive” and the mutagenic call [1] is reported as “active; positive”. The mutagenic call (Test System: AMES SALMONELLA TYPHIMURIUM, Strain/Indicator: TA98, Metabolic Activation: RAT, LIVER, S-9, PCB, Method: PREINCUBATION) was “inactive; negative”, the mutagenic call (Test System: AMES SALMONELLA TYPHIMURIUM, Strain/Indicator: TA98, Metabolic Activation: RAT, LIVER, S-9, Method: PREINCUBATION) was “active; positive” and the mutagenic call [2] was “inactive; negative”. The mutagenic call [3] was “inactive; negative”, the mutagenic call [4] was “inactive; negative” and the mutagenic call (Test System: AMES SALMONELLA TYPHIMURIUM, Strain/Indicator: TA100, Metabolic Activation: RAT, LIVER, S-9, PCB, Method: PREINCUBATION) was “active; positive”. The mutagenic call (Test System: AMES SALMONELLA TYPHIMURIUM, Strain/Indicator: TA102, Metabolic Activation: NONE, Method: STANDARD PLATE) was “inactive; negative”, the mutagenic call (Test System: AMES SALMONELLA TYPHIMURIUM, Strain/Indicator: TA102, Metabolic Activation: RAT, LIVER, S-9, AROCLOR 1254, Method: STANDARD PLATE) was “active; positive” and the mutagenic call (Test System: AMES SALMONELLA TYPHIMURIUM, Strain/Indicator: TA102, Metabolic Activation: RAT, LIVER, S-9, Method: PREINCUBATION) was “active; positive”. For the same molecule, the mutagenic call [5] was “inactive; negative”, the mutagenic call [6] was “inactive; negative” and the mutagenic call [7] was “active; positive”. For the same molecule, the mutagenic call [8] was “active; positive”, the mutagenic call (Test System: AMES SALMONELLA TYPHIMURIUM, Strain/Indicator: TA1537, Metabolic Activation: RAT, LIVER, S-9, Method: PREINCUBATION) was “active; positive” and the mutagenic call (Test System: AMES SALMONELLA TYPHIMURIUM, Strain/Indicator: TA1538, Metabolic Activation: NONE, Method: PREINCUBATION) was “active; positive”. For the same molecule, the mutagenic call (Test System: AMES SALMONELLA TYPHIMURIUM, Strain/Indicator: TA1538, Metabolic Activation: NONE, Method: STANDARD PLATE) was “active; positive”, the mutagenic call (Test System: AMES SALMONELLA TYPHIMURIUM, Strain/Indicator: TA1538, Metabolic Activation: RAT, LIVER, S-9, AROCLOR 1254, Method: STANDARD PLATE) was “active; positive” and the mutagenic call (Test System: AMES SALMONELLA TYPHIMURIUM, Strain/Indicator: TA1538, Metabolic Activation: RAT, LIVER, S-9, Method: PREINCUBATION) was “active; positive”. For the same molecule, the mutagenic call (Test System: AMES SALMONELLA TYPHIMURIUM, Strain/Indicator: TA1978, Metabolic Activation: NONE, Method: PREINCUBATION) was “active; positive”, the mutagenic call (Test System: AMES SALMONELLA TYPHIMURIUM, Strain/Indicator: TA1978, Metabolic Activation: RAT, LIVER, S-9, Method: PREINCUBATION) was “inactive; negative” and the mutagenic call (Test System: CHINESE HAMSTER V-79, Strain/Indicator: V-79 (HGPRT)/6-THIOGUANINE, Metabolic Activation: NONE) was “inactive; negative”. For the same molecule, the mutagenic call (Test System: CHINESE HAMSTER V-79, Strain/Indicator: V-79 (HPRT)/6-THIOGUANINE, Metabolic Activation: NONE) was “inactive; negative”, the mutagenic call (Test System: CHINESE HAMSTER V-79, Strain/Indicator: V-79 (HPRT)/6-THIOGUANINE, Metabolic Activation: RAT, LIVER, S-9, AROCLOR 1254) was “inactive; negative” and the mutagenic call (Test System: CHINESE HAMSTER V-79, Strain/Indicator: V-79/8-AZAGUANINE, Metabolic Activation: NONE, Method: STANDARD PLATE) was “active; positive”. For the same molecule, the mutagenic call (Test System: UDS RAT HEPATOCYTES, Strain/Indicator: THY INCORP, Metabolic Activation: NONE, Method: AUTORADIOGRAPHY) was “inactive; negative”, the mutagenic call (Test System: UDS RAT HEPATOCYTES, Strain/Indicator: THY INCORP, Metabolic Activation: NONE, Method: IN VIVO-IN VITRO) was “inactive; negative” and the mutagenic call (Test System: UDS RODENT HEPATOCYTES, Strain/Indicator: THY INCORP (NON-S-PHASE), Metabolic Activation: NONE, Method: AUTORADIOGRAPHY) was “active; positive”.
